The test system of one experiment is MNT-1 melanoma cells. As to the kind of experiment: Inhibition of melanin production in MNT-1 melanoma cells. It counts as cell-based. The settings on record: each component 3 μg/mL (3 ppm); 72 hours; relative to methanol negative control; average of three. On the procedure:
To culture MNT-1 melanoma cells, a mixture of Dulbecco's Modified Eagle's Medium (DMEM) and 10% fetal bovine serum (FBS) was used as a basal medium. MNT-1 melanoma cells were dispensed in a 6-well plate at a concentration of 1-2×10^5 cells/mL and cultured for 24 hours. Samples were treated so that the final concentration of each component of Comparative Examples 1 to 4 and Examples 1 to 6 was 3 μg/mL (3 ppm), and then cultured for 72 hours. As a positive control, arbutin was treated to be 200 μg/mL (200 ppm) (positive control in Table 3). Thereafter, the cells were treated with trypsin, detached from the culture vessel, centrifuged at 13,000 rpm for 1 minute, and then the supernatant was removed. Cells were lysed by adding 300 μL of a 0.5% Triton X-100 solution to the remaining cells. This was again centrifuged at 13,000 rpm for 3 minutes to recover the pellet and supernatant separately. Melanin in the pellet was dissolved by adding 100 μL of a 0.5 N sodium hydroxide solution and incubating for 12 hours, and absorbance at 450 nm was measured using a spectrophotometer to measure the total amount of melanin produced.
The total amount of inhibited melanin production was calculated as a melanin production inhibition rate (%) relative to a group (negative control group) treated with methanol (Equation 1 below), and the experiment was performed three times, and then an average value was calculated and shown in Table 3.

Another experiment concerns Human skin keratinocytes. As to the kind of experiment: Hyaluronic acid synthesis promotion in keratinocytes (Hyaluronan ELISA). The settings on record: each component 3 μg/mL (3 ppm); 24 hours; medium without EGF and BPE; relative to methanol negative control; average of three. Type of experiment: cell-based. On the procedure: Human skin keratinocytes (primary cultured human skin keratinocytes) were purchased from Thermo Fisher Scientific and cultured using Keratinocyte-SFM supplemented with epidermal growth factor (EGF), which is a growth factor, and bovine pituitary extract (BPE). The keratinocytes were dispensed in a 60-mm culture plate at a concentration of 2-5×10^5 cells/mL and cultured for 24 hours. The basal medium with growth factors was removed, and a medium (a medium to which EGF and BPE were not added) having a final concentration of 3 μg/mL (3 ppm) of each component of Comparative Examples 1 to 4 and Examples 1 to 6 was added and cultured for 24 hours. A positive control for inducing hyaluronic acid synthesis was treated with all-trans-retinoic acid to be 100 nM (positive control in Table 5). A cell culture solution was taken and synthesized hyaluronic acid was measured using a Hyaluronan DuoSet ELISA Kit (R&D Systems) and a spectrophotometer.
A calibration curve was created by measuring standard hyaluronic acid at concentrations of 1.1, 3.3, 10, 30, and 90 ng/mL, and based on this, the hyaluronic acid production amounts of Comparative Examples 1 to 4 and Examples 1 to 6, a negative control group, and […] were calculated. The hyaluronic acid production amount was calculated using a hyaluronic acid production rate (%) relative to the group treated with methanol (negative control group) (Equation 2 below), and the experiment was performed three times, and then an average value was calculated and shown in Table 5.
A general note: ELISA stands for enzyme-linked immunosorbent assay.

Experiment [1] can be described thus: Free radical scavenging ability by DPPH method. It counts as biochemical. Particulars: each component 0.5 mg/mL in methanol; DPPH 0.12 mM; 1 hour; absorbance 517 nm; average of three. On the procedure: In Comparative Examples 1 to 4 and Examples 1 to 6, a solution was prepared using methanol as a solvent so that the concentration of each component in the solution was 0.5 mg/mL. In order to confirm the antioxidant effect of Comparative Examples 1 to 4 and Examples 1 to 6, free radical scavenging ability was measured using a 1,1-diphenyl-2-picrylhydrazyl (DPPH) method. […] DPPH was used after being dissolved in methanol at a concentration of 0.12 mM.
Comparative Examples 1 to 4, Examples 1 to 6, and Trolox solutions by concentration (0.0125, 0.025, 0.05, 0.1, 0.2, 0.4, 0.8 mg/mL) were each put into a 24-well plate in an amount of 100 μL, and the DPPH solution was added in an amount of 1,900 μL. After blocking the light at room temperature and leaving it for 1 hour, the absorbance at 517 nm was measured using a microplate reader (BioTek EPOCH). A calibration curve according to the concentration was created using the absorbance values of the Trolox solution at 7 concentrations. In this experiment, Trolox is one indicator for measuring the antioxidative capacity of a sample, and the antioxidative capacity of each comparative example and example is a size compared to Trolox. The degree of antioxidant effect shown by 1 mL of the example solution by substituting the absorbance of the example solution into the calibration curve is expressed in Trolox μmol equivalents/mL and summarized in Table 2 below. The experiment was performed three times, and then an average value was calculated and shown.
(In general: DPPH is a stable violet radical that fades when it is reduced.)

The test system of experiment [2] is human-derived fibroblasts. As to the kind of experiment: Collagen synthesis promotion in fibroblasts (Procollagen 1α1 ELISA). It counts as cell-based. Particulars: each component 3 μg/mL (3 ppm); 24 hours; medium without FBS; relative to methanol negative control; average of three. On the procedure:
A mixture of DMEM and 10% FBS was used as a basal medium for culturing human-derived fibroblasts. Skin fibroblasts were dispensed in a 48-well plate at a concentration of 2-5×10^4 cells/mL and cultured for 24 hours. The basal medium with growth factors was removed, and a medium (a medium to which FBS was not added) having a final concentration of 3 μg/mL (3 ppm) of each component of Comparative Examples 1 to 4 and Examples 1 to 6 was added and cultured for 24 hours. A positive control for inducing collagen synthesis was treated with TGF-β to be 5 ng/mL (5 ppb) (positive control in Table 4). A cell culture solution was taken and synthesized collagen was measured using a Human Procollagen 1α1 Duoset ELISA Kit (R&D Systems) and a spectrophotometer.
A calibration curve was created by measuring the separated and purified collagen at concentrations of 0.25, 0.5, 1, 2, 4, and 8 ng/mL, and based on this, the collagen (Type I collagen) production amounts of Comparative Examples 1 to 4 and Examples 1 to 6, a negative control group, and a positive control group were calculated. The collagen production amount was calculated using a collagen production rate (%) relative to the group treated with methanol (negative control group) (Equation 2 below), and the experiment was performed three times, and then an average value was calculated and shown in Table 4.

As to `COc1cc(/C=C/C(=O)O)ccc1O` [compound 2, Ferulic acid], in the experiment with MNT-1 melanoma cells, the “Melanin production Inhibition rate (%)” value was 16.3%. In addition, the “Hyaluronic acid Production rate (%)” value in the experiment with Human skin keratinocytes is recorded as 32.2%. The “Trolox μmol equivalents/mL” value in experiment [1] was 0.981 Trolox μmol equivalents/mL. Further, in experiment [2], the “Collagen Production rate (%)” value was 8.8%.

For the molecule `CC[C@H](CC[C@@H](C)[C@H]1CC[C@H]2[C@@H]3CC=C4C[C@@H](O)CC[C@]4(C)[C@H]3CC[C@]12C)C(C)C` [compound 3, Beta-sitosterol], in the experiment on MNT-1 melanoma cells, the “Melanin production Inhibition rate (%)” value stood at 1.7%. In addition, the “Hyaluronic acid Production rate (%)” value with Human skin keratinocytes is −3.0%. In addition, the “Trolox μmol equivalents/mL” value in experiment [1] is 0.051 Trolox μmol equivalents/mL. Besides, the “Collagen Production rate (%)” value in experiment [2] worked out at 2.4%.

Consider `C[C@@H]1CC[C@H]2C(C)(C)[C@H]3C[C@@]12CC[C@@]3(C)O` [compound 1, Cedrol], for which the “Melanin production Inhibition rate (%)” value with MNT-1 melanoma cells is listed as 17.5%. Besides, the “Hyaluronic acid Production rate (%)” value with Human skin keratinocytes amounted to 5.6%. The “Trolox μmol equivalents/mL” value in experiment [1] is recorded as 0.104 Trolox μmol equivalents/mL. The “Collagen Production rate (%)” value in experiment [2] turned out to be 27.9%.

On to `CCCCC/C=C\C/C=C\CCCCCCCC(=O)O` [compound 4, Linoleic acid], for which, in the experiment with MNT-1 melanoma cells, the “Melanin production Inhibition rate (%)” value is reported as 6.7%. For the same molecule, the “Hyaluronic acid Production rate (%)” value in the experiment with Human skin keratinocytes was 4.1%. Also, the “Trolox μmol equivalents/mL” value in experiment [1] is 0.023 Trolox μmol equivalents/mL. Also, the “Collagen Production rate (%)” value in experiment [2] is −2.5%.

The values are drawn from patent US20240299277A1, “COMPOSITION FOR IMPROVING SKIN” (LG HOUSEHOLD & HEALTH CARE LTD., priority 2020, published 2024).
